Data as given in patent US20170304286A1 (LAUNX BIOMEDICAL CO., LTD., priority 2014, published 2017).
Several values for one entry are separate records, joined by “and”; a condition that tells them apart may be missing. Identical values can stand only once. Like-named read-outs stand apart in the source and are kept apart here.

Legend:
[1] = system: ovarian cancer cells; test: Summary of cell viability, ovarian cancer; assay type: cell-based; conditions: 72 h, read-out: Inhibitory effect
Method: (§1) Removing the original culture medium from 96-well plate. Then add 100 μl of commercially drug at a concentration of 10 μM per well. After 72 hours, add the diluted WST-1 reagent to the well with 100 μl/well, and the diluted WST-1 reagent was acquired from the dilution of 9:1 medium and WST-1 stock reagent. Finally, the total volume of each well was 200 μl/well. Culture the 96-well plate at 37° C. for 30 to 90 minutes. Detecting and calculate the survival rate of each cancer cells with an ELISA reader at OD450 nm.

[2] = system: hepatic cancer cells; test: Summary of cell viability, hepatic cancer; assay type: cell-based; conditions: 72 h, read-out: Inhibitory effect
Method: as §1

[3] = system: PC-3; test: WST-1 cell viability, prostate cancer cell line PC-3; assay type: cell-based; conditions: Homo sapiens
Method: (§2) The cell numbers were counted and reseed as 2×10^6 in culture plate/flask. Then, the culture medium were added to a volume of 10 ml, and the cells were cultured for 2-3 days. Then, the cells were suspended for loading into 96-well plates. The number of cells was 3000 and the volume of the culture medium was 100 μl each well.
as §1

[4] = system: C-33A (Cervical carcinoma); test: WST-1 cell viability, cervical cancer cell line C-33A; assay type: cell-based; conditions: Homo sapiens, 72 h
Method: as §2, §1

[5] = system: MDA-MB-231 (Mammary Gland, Adenocarcinoma); test: WST-1 cell viability, breast cancer cell line MDA-MB-231; assay type: cell-based; conditions: Homo sapiens
Method: as §2, §1

[6] = system: skin cancer cells; test: Summary of cell viability, skin cancer; assay type: cell-based; conditions: 72 h, read-out: Inhibitory effect
Method: as §1

[7] = system: gastric cancer cells (AGS); test: Animal model test of gastric cancer, tumor size; assay type: in vivo, mice
Method: In this invention, the female mice were (BALB/cAnN.Cg-Foxn1^nu/CrlNarl) purchased from National Laboratory Animal Center (Taiwan). The weight of the mice were 21±1 g. These mice were subcutaneously injected with gastric cancer cells (AGS) and then put these mice into different cage sat random. The drug test experiment was divided into three groups, include “control group”, “low dose group (100 mg/kg/day)”, and “high dose group (200 mg/kg/day)”. These mice were then injected test drug intraperitoneally once daily […]. The tumor sizes and body weight were measured twice a week. The tumor sizes were measured and calculated by formula: (L×W^2)/2. L represents the tumor longest length. W represents the tumor shortest diameter.

[8] = 100 mg/kg/day i.p., Fifth measurement
[9] = 100 mg/kg/day i.p., Fifth measurement, mice A, B, C
[10] = 100 mg/kg/day i.p., First measurement
[11] = 100 mg/kg/day i.p., First measurement, mice A, B, C
[12] = 100 mg/kg/day i.p., Fourth measurement
[13] = 100 mg/kg/day i.p., Fourth measurement, mice A, B, C
[14] = 100 mg/kg/day i.p., Second measurement
[15] = 100 mg/kg/day i.p., Second measurement, mice A, B, C
[16] = 100 mg/kg/day i.p., Third measurement
[17] = 100 mg/kg/day i.p., Third measurement, mice A, B, C
[18] = 200 mg/kg/day i.p., Fifth measurement
[19] = 200 mg/kg/day i.p., Fifth measurement, mice A, B, C
[20] = 200 mg/kg/day i.p., First measurement
[21] = 200 mg/kg/day i.p., First measurement, mice A, B, C
[22] = 200 mg/kg/day i.p., Fourth measurement
[23] = 200 mg/kg/day i.p., Fourth measurement, mice A, B, C
[24] = 200 mg/kg/day i.p., Second measurement
[25] = 200 mg/kg/day i.p., Second measurement, mice A, B, C
[26] = 200 mg/kg/day i.p., Third measurement

SMILES: Fc1ccc([C@@H]2CCNC[C@H]2COc2ccc3c(c2)OCO3)cc1 [Paroxetine]
- viability at 10 µM [1]: 86.5%
- viability at 10 µM [2]: 60.1%
- viability at 10 µM ([3]; PC-3, 72 h, PC-3, average of 4 tests, read-out: survival rate (inhibition effect), Average): 44.1%
- viability at 10 µM ([3]; PC-3, PC-3, 72 h, run PC-3-0524-10 min, read-out: survival rate (inhibition effect)): 33.5%
- viability at 10 µM ([3]; PC-3, PC-3, 72 h, run PC-3-0526-10 min, read-out: survival rate (inhibition effect)): 61.6%
- viability at 10 µM ([3]; PC-3, PC-3, 72 h, run PC-3-0529-10 min, read-out: survival rate (inhibition effect)): 39.3%
- viability at 10 µM ([3]; PC-3, PC-3, 72 h, run PC-3-0531-10 min, read-out: survival rate (inhibition effect)): 41.8%
- viability at 10 µM ([4]; average of 4 tests, read-out: survival rate (inhibition effect), Average): 33.2%
- viability at 10 µM ([4]; run 0524-10 min, read-out: survival rate (inhibition effect)): 33.2%
- viability at 10 µM ([4]; run 0526-10 min, read-out: survival rate (inhibition effect)): 32.1%
- viability at 10 µM ([4]; run 0529-10 min, read-out: survival rate (inhibition effect)): 31.7%
- viability at 10 µM ([4]; run 0531-10 min, read-out: survival rate (inhibition effect)): 35.8%
- viability at 10 µM ([5]; MDA-MB-231, 72 h, MDA-MB-231, average of 4 tests, read-out: survival rate (inhibition effect), Average): 41.8%
- viability at 10 µM ([5]; MDA-MB-231, MDA-MB-231, 72 h, run 0612-10 min, read-out: survival rate (inhibition effect)): 47.9%
- viability at 10 µM ([5]; MDA-MB-231, MDA-MB-231, 72 h, run 0614-10 min, read-out: survival rate (inhibition effect)): 35.9%
- viability at 10 µM ([5]; MDA-MB-231, MDA-MB-231, 72 h, run 0616-10 min, read-out: survival rate (inhibition effect)): 42%
- viability at 10 µM ([5]; MDA-MB-231, MDA-MB-231, 72 h, run 0619-10 min, read-out: survival rate (inhibition effect)): 41.2%
- viability at 10 µM [6]: 51%
- Tumor volume growth, average [7, 8]: −8.333 mm3
- volume, average [7, 8]: 63.333 mm3
- longest length [7, 9]: 6 mm and 4 mm
- width [7, 9]: 6 mm and 5 mm and 4 mm
- Tumor volume growth, average [7, 10]: 113.1667 mm3
- volume, average [7, 10]: 113.1667 mm3
- Tumor volume growth [7, 11]: 87.5 mm3 and 144 mm3 and 108 mm3
- longest length [7, 11]: 7 mm and 8 mm and 6 mm
- volume [7, 11]: 87.5 mm3 and 144 mm3 and 108 mm3
- width [7, 11]: 5 mm and 6 mm
- Tumor volume growth, average [7, 12]: −18.167 mm3
- volume, average [7, 12]: 71.667 mm3
- longest length [7, 13]: 6 mm and 4 mm
- width [7, 13]: 6 mm and 4 mm and 5 mm
- Tumor volume growth, average [7, 14]: −4.167 mm3
- volume, average [7, 14]: 109 mm3
- longest length [7, 15]: 6 mm and 7 mm
- volume [7, 15]: 75 mm3 and 126 mm3
- width [7, 15]: 5 mm and 6 mm
- Tumor volume growth, average [7, 16]: −19.167 mm3
- volume, average [7, 16]: 89.833 mm3
- longest length [7, 17]: 7 mm
- width [7, 17]: 6 mm and 4 mm and 5 mm
- Tumor volume growth, average [7, 18]: 0 mm3
- volume, average [7, 18]: 0 mm3
- Tumor volume growth [7, 19]: 0 mm3
- longest length [7, 19]: 0 mm
- volume [7, 19]: 0 mm3
- width [7, 19]: 0 mm
- Tumor volume growth, average [7, 20]: 78.5 mm3
- volume, average [7, 20]: 78.5 mm3
- longest length [7, 21]: 6 mm and 8 mm and 7 mm
- width [7, 21]: 4 mm and 5 mm
- Tumor volume growth, average [7, 22]: −13.33 mm3
- volume, average [7, 22]: 0 mm3
- longest length [7, 23]: 0 mm
- volume [7, 23]: 0 mm3
- width [7, 23]: 0 mm
- Tumor volume growth, average [7, 24]: −25.8333 mm3
- volume, average [7, 24]: 52.67 mm3
- longest length [7, 25]: 6 mm and 5 mm and 7 mm
- width [7, 25]: 4 mm and 3 mm and 5 mm
- Tumor volume growth, average [7, 26]: −39.33 mm3
- volume, average [7, 26]: 13.333 mm3
- inhibition effect on tumor cells ([7]; both low dose and high dose, FIG. 2): significant inhibition effect
- Tumor volume growth ([7]; both low dose and high dose, FIG. 3): effectively slow down the tumor volume growth
- inhibition of tumor growth, high doses compared with low ([7]; high doses, FIG. 3): better effect to inhibit tumor growth
